Measurements: patent US10987450B2, “Lyophilized moldable implants containing an oxysterol” (Warsaw Orthopedic, Inc., priority 2016, dated 2021)
Entries after “also recorded” stand apart in the source; their conditions may differ.

How the values were obtained:
[1] = system: C3H10T1/2 embryonic fibroblasts; settings: cited from earlier work
[2] = system: M2-10B4 (M2) marrow stromal cells; settings: cited from earlier work
[3] = solubility of Oxy133 in water; type: physicochemical
From the text: The Oxy133 can be solubilized in a non-aqueous solvent, such as for example, ethanol and mixed into a solution or suspension. In some embodiments, the Oxy133 can be filtered by passing the Oxy133 and solvent through a filter (e.g., 0.22 microns). This will remove bacteria and other larger-size particulates out of the composition. The Oxy133 used in the composition can be micronized before it is mixed with solvents and other excipients. In various embodiments, the particle size of the Oxy133 can range from about 1 micron to 250 microns. In some embodiments, the Oxy133 can have a particle size of from about 5 microns to about 100 microns or from about 20 to 50 microns. The Oxy133 in the solution or suspension can be added to a slurry of biodegradable polymer and/or the ceramic particles, mixed and, then dried.

rat spines = assay: rat two-level spine model, implants in the posterolateral space, radiographs and manual palpation; type: in vivo; settings: 4-week and 8-week time points
Protocol: FIG. 6 illustrates uses of a formulation of malleable implants having 20 mg of Oxy133 on each side of the implant, in accordance with the malleable implants described herein. […] A dry composition of a matrix containing Oxy133, collagen and ceramic as described herein was prepared and wetted with sterile water to be implanted in rat spines as shown in FIG. 6. The wetted matrix was cut in half with a razor blade to yield two halves. The two implants were molded into cylindrical shapes prior to insertion and were positioned bilaterally in the posterolateral space of each test subject. Each implant contained 20 mg Oxy133. Radiographs were taken roughly 10 minutes after the procedure, 4 weeks after the procedure, and 8 weeks after the procedure. […] Fusion was tested at 8-week sacrifice by manual palpation. […] A dry composition of a matrix containing Oxy133, collagen and ceramic as described herein was prepared and wetted with sterile water to be implanted in rat spines as shown in FIG. 6. The wetted matrix was cut in half with a razor blade to yield two halves. The two implants were molded into cylindrical shapes prior to insertion and were positioned bilaterally in the posterolateral space of each test subject. Each implant contained 125 mg Oxy133. Radiographs were taken roughly 10 minutes after the procedure, 4 weeks after the procedure, and 8 weeks after the procedure. […]

Mesenchymal stem cells = assay: osteoblast differentiation of mesenchymal stem cells treated with Oxy133; type: cell-based
From the text: Thus, in some embodiments, a matrix comprising Oxy133 may be implanted into a spinal site with mesenchymal stem cells to induce bone growth through osteoblast differentiation. Periosteum tissue is one tissue type that is involved early during normal bone fracture repair process and can recruit various cell types (e.g., mesenchymal stem cells) and bone growth factors necessary for bone fracture repair. Thus, in some embodiments, periosteum tissue is utilized as a source of mesenchymal stem cells and/or growth factors in a demineralized bone composition.

Row | SMILES | osteogenic differentiation [1] | osteogenic differentiation [2] | solubility in water [3] | bridging bone across the transverse processes of L3-L5 (radiographs) (rat spines; each implant 20 mg Oxy133) | bridging bone across the transverse processes of L3-L5 (radiographs) (rat spines; each implant 125 mg Oxy133) | osteoblast differentiation (Mesenchymal stem cells)
1 | CC(C)CCC[C@](C)(O)[C@H]1CC[C@H]2[C@@H]3CC=C4C[C@@H](O)CC[C@]4(C)[C@H]3CC[C@@]21C [20(S)-hydroxycholesterol] | induce osteogenic differentiation | induce osteogenic differentiation |  |  |  | 
2 | CC(C)CC[C@@H](O)[C@@H](C)[C@H]1CC[C@H]2[C@@H]3CC=C4C[C@@H](O)CC[C@]4(C)[C@H]3CC[C@]12C [22(R)-hydroxycholesterol] | induce osteogenic differentiation | induce osteogenic differentiation |  |  |  | 
3 | CC(C)CC[C@H](O)[C@@H](C)[C@H]1CC[C@H]2[C@@H]3CC=C4C[C@@H](O)CC[C@]4(C)[C@H]3CC[C@]12C [22(S)-, 22(S)-hydroxycholesterol] | induce osteogenic differentiation | induce osteogenic differentiation |  |  |  | 
4 | CCCCCC[C@](C)(O)[C@H]1CC[C@H]2[C@@H]3C[C@H](O)[C@H]4C[C@@H](O)CC[C@]4(C)[C@H]3CC[C@@]21C [Oxy133, (3S,5S,6S,8R,9S,10R, 13S, 14S,17S) 17-((S)-2-hydroxyoctan-2-yl)-10,13-dimethylhexadecahydro-1H-cyclopenta[a]phenanthrene-3,6-diol] |  |  | only slightly soluble or insoluble | Bone growth in rat test subjects can be seen; also recorded: promoted bridging bone | promoted bridging bone; also recorded: Bone growth in rat test subjects can be seen | increased osteoblast differentiation
